This assay has as its target T1, Carbon monoxide dehydrogenase small chain (Afipia carboxidovorans (strain ATCC 49405 / DSM 1227 / KCTC 32145 / OM5), UniProt P19921).
T1 sequence (P19921 whole entry): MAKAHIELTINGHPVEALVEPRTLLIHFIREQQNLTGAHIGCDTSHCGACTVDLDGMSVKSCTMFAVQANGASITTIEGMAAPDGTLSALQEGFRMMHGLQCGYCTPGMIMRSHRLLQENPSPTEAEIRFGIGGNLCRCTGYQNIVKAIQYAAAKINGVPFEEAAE
Nature of the assay: Inhibition Assay. An excerpt: Inhibition of CODH by Diphenyliodomium chloride. Inactivation of the FAD cofactor of CODH was accomplished by covalent modification of the flavin with diphenyliodonium chloride using a modification of the procedure of Chakraborty and Massey.

In general, Kd refers to the equilibrium constant for the complex coming apart. On to `O=C1C=CC(=O)C=C1` [1,4-Benzoquinone], for which the Kd came out at 47.6 µM.

Regarding `O=C1C=CC(=O)c2ccccc21` [1,4-dihydronaphthalene-1,4-dione], binding was characterised by a dissociation constant (Kd) of 140 µM.

Values taken from BindingDB's records for doi:10.1021/bi1017182 (University of California Riverside, 2011).
